Measurements: patent US20250115598A1 (Anaxis Pharma Pty Ltd, priority 2021, published 2025)

Legend:
[1] = biological target: human MLKL (full length) (Homo sapiens (Human), UniProt Q8NB16); test: KINOMEscan binding assay, human MLKL (full length); details: hMLKL, Table 25; read-out: MLKL (KD)
How it was run: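 Kd values come from dose-response fits to the Hill equation (Hill slope −1, Levenberg–Marquardt least squares). Compound competed with bead-bound ligand for tagged kinase, and remaining kinase was measured by qPCR after elution. Dilution series: 11 points, 3-fold, 1% DMSO final, top 30,000 nM in most runs.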

[2] = tested on: Immortalised Mouse Dermal Fibroblasts (MDFs); test: Cellular assay: inhibition of TSI induced necroptosis, CellTitre-Glo viability; details: Mus musculus, Fibroblast; MDF, 3 hours TSI cocktail, Table 27; read-out: Inhibition of TSI-induced necroptosis (IC50 cell-based assay) in MDF
How it was run: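 Necroptosis induced for 3 h with TSI: rhTNF 100 ng/ml, Smac mimetic 500 nM, caspase inhibitor IDN-6556 10 μM. Mouse dermal fibroblasts had received compound (36 μM top, ten three-fold steps) 30 min beforehand. ATP-based viability scaled between untreated and TSI-only wells; IC50 taken as 4-parameter curve inflection.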

[3] = biological target: endogenous MLKL in MDF (Mus musculus (Mouse), UniProt Q9D2Y4); test: Degradation assay: endogenous MLKL in MDF (western blot); details: MDF cells, 24 h incubation with compound, MLKL adjusted for loading with GAPDH, normalized to DMSO only control, read-out: Degradation of endogenous MLKL in MDF (DC50 cell-based assay)
Chain of endogenous MLKL in MDF (Q9D2Y4 whole entry): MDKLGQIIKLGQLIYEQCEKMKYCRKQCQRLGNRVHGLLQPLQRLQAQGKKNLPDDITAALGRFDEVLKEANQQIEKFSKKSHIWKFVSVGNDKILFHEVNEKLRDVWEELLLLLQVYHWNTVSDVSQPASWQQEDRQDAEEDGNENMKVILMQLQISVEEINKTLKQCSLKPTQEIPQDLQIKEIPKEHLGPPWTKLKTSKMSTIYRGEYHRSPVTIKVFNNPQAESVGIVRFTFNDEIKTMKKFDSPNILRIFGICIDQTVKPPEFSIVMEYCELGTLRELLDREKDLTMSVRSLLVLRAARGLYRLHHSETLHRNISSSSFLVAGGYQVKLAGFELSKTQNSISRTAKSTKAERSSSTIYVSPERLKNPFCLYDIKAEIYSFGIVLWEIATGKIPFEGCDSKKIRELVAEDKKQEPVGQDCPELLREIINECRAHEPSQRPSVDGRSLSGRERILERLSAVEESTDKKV
Description: Degradation Assay: Screening Compounds Procedure to Evaluate the Activity of Compounds in Degrading Endogenous MLKL in Human and Mouse Cell
The mouse dermal fibroblast (MDF) cell line was seeded the day before the experiment in a 24-well plate at a cell density of […] per well in a volume of 0.5 mL per well and left to attach overnight. The human monocyte cell line (U937) was seeded on the day of the experiment in a 24-well plate at a cell density of […] per well in a volume of 0.5 mL per well.
The compound was diluted in DMSO with a starting concentration of 10 mM and titrated stepwise with a dilution of 1:5. 0.5 μL of the compound dilution was added to the appropriate well to achieve a final concentration of 10; 2; 0.4; 0.08 and 0.016 μM. A DMSO only well was included as control.
The cells were incubated for 24 h in the presence of the compound at 37° C. and 10% CO2.
After the 24 h incubation period, the medium was removed and cells washed with 0.5 mL PBS. The cells were then lysed directly in 60 μL of 1×SDS gel loading buffer.
The cell lysate was heat-denatured at […] for 10 min. 10 μL of lysate per well were run on 18-well 4-15% Criterion TGX stain free gels (BIO-RAD). The proteins were then transferred onto nitrocellulose membrane with a wet transfer protocol in the Criterion Blotter (BIO-RAD).
Membranes were blocked with 5% skim milk in TBST. Primary antibody against MLKL (clone 3H1, MABC604 Merck) was used at 1:2000 dilution in TBST with 1% BSA and left shaking over night at 4° C. After washes with TBST, the membranes were incubated with goat anti-rat IgG HRP-conjugated antibody (Southern Biotech) in 1% skim milk TBST at 1:10000 dilution for 1 h at room temperature. After TBST washes the bands were imaged on the ChemiDoc MP Imaging System (BIO-RAD) with Immobilion Western Chemiluminescent HRP Substrate Forte (Millipore). The loading control GAPDH was probed for with rabbit anti-GAPDH (CST 14C10) at 1:2000 dilution in 1% BSA TBST over night at 4° C. TBST washes were followed by incubation with goat anti-rabbit IgG HRP-conjugated antibody (Southern Biotech) in 1% skim milk TBST at 1:10000 dilution for 1 h at room temperature followed by TBST washes. The signal was detected as described above.
The band intensity was measured in the ImageLab Software (BIO-RAD) and the MLKL values adjusted for loading with GAPDH. The percentage of degradation was calculated by normalizing the compound treated values to the DMSO only control.

Chain of human MLKL (full length) (Q8NB16 whole entry): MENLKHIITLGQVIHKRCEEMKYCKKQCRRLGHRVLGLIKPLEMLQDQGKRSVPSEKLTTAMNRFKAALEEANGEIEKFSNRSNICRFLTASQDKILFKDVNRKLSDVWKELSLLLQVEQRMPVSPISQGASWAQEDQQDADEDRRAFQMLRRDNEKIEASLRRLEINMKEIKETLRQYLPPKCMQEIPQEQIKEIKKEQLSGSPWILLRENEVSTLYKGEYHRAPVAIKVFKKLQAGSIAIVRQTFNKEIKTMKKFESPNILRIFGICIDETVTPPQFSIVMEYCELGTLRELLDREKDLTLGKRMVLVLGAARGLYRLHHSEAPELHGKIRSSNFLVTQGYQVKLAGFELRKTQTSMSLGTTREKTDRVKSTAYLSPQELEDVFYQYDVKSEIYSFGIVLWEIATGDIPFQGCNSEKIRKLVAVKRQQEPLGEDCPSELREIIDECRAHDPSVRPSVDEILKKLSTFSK

Work on C[C@H](Oc1cc(-c2nn(C)c3c(-c4cnn(C5CCN(C(=O)C6CN(c7cccc8c7C(=O)N(C7CCC(=O)NC7=O)C8=O)CCO6)CC5)c4)cnc(N)c23)ccc1NS(=O)(=O)C(F)F)c1ccc(F)cc1 (stereo partly drawn) [Compound 1070, N-(4-{4-amino-7-[1-(1-{4-[2-(2,6-dioxopiperidin-3-yl)-1,3-dioxo-2,3-dihydro-1H-isoindol-4-yl]morpholine-2-carbonyl}piperidin-4-yl)-1H-pyrazol-4-yl]-1-methyl-1H-pyrazolo[4,3-c]pyridin-3-yl}-2-[(1S)-1-(4-fluorophenyl)ethoxy]phenyl)-1,1-difluoromethanesulfonamide] yielded a Kd [1] of 0.01 to 1 µM, an IC50 [2] of under 1 µM and a DC50 [3] of under 1 µM.

With C[C@H](Oc1cc(-c2nn(C)c3c(-c4cnn(C5CCN(C(=O)CCC6CCN(c7cccc8c7C(=O)N(C7CCC(=O)NC7=O)C8=O)CC6)CC5)c4)cnc(N)c23)ccc1NS(=O)(=O)C(F)F)c1ccc(F)cc1 (stereo partly drawn) [Compound 1043, N-[4-(4-amino-7-{1-[1-(3-{1-[2-(2,6-dioxopiperidin-3-yl)-1,3-dioxo-2,3-dihydro-1H-isoindol-4-yl]piperidin-4-yl}propanoyl)piperidin-4-yl]-1H-pyrazol-4-yl}-1-methyl-1H-pyrazolo[4,3-c]pyridin-3-yl)-2-[(1S)-1-(4-fluorophenyl)ethoxy]phenyl]-1,1-difluoromethanesulfonamide] the Kd [1] was 0.01 to 1 µM, the IC50 [2] was under 1 µM and the DC50 [3] was under 1 µM.

C[C@H](Oc1cc(-c2nn(C)c3c(-c4cnn(C5CCN(C(=O)C6CC(N(C)c7cccc8c7C(=O)N(C7CCC(=O)NC7=O)C8=O)C6)CC5)c4)cnc(N)c23)ccc1NS(=O)(=O)C(F)F)c1ccc(F)cc1 (stereo partly drawn) [Compound 1119, N-{4-[4-amino-1-methyl-7-(1-{1-[(trans)-3-{[2-(2,6-dioxopiperidin-3-yl)-1,3-dioxo-2,3-dihydro-1H-isoindol-4-yl](methyl)amino}cyclobutanecarbonyl]piperidin-4-yl}-1H-pyrazol-4-yl)-1H-pyrazolo[4,3-c]pyridin-3-yl]-2-[(1S)-1-(4-fluorophenyl)ethoxy]phenyl}-1,1-difluoromethanesulfonamide] was tested, and the Kd [1] was under 0.01 µM, the IC50 [2] was under 1 µM and the DC50 [3] was under 1 µM.

C[C@H](Oc1cc(-c2nn(C)c3c(-c4cnn(C5CCN(C(=O)[C@H]6CC[C@@H](Nc7cccc8c7C(=O)N(C7CCC(=O)NC7=O)C8=O)CC6)CC5)c4)cnc(N)c23)ccc1NS(=O)(=O)C(F)F)c1ccc(F)cc1 (some centres unmarked) [Compound 1071] was tested, and the Kd [1] was under 0.01 µM, the IC50 [2] was under 1 µM and the DC50 [3] was under 1 µM.

CCS(=O)(=O)Nc1ccc(-c2nn(C)c3c(-c4cnn(C5CCN(C(=O)[C@H]6C[C@H](Nc7cccc8c7C(=O)N(C7CCC(=O)NC7=O)C8=O)C6)CC5)c4)cnc(N)c23)cc1F (stereo partly drawn) [Compound 1102, N-{4-[4-amino-1-methyl-7-(1-{1-[(trans)-3-{[2-(2,6-dioxopiperidin-3-yl)-1,3-dioxo-2,3-dihydro-1H-isoindol-4-yl]amino}cyclobutanecarbonyl]piperidin-4-yl}-1H-pyrazol-4-yl)-1H-pyrazolo[4,3-c]pyridin-3-yl]-2-fluorophenyl}ethane-1-sulfonamide] was tested, and the Kd [1] was under 0.01 µM, the IC50 [2] was under 1 µM and the DC50 [3] was under 1 µM.

Compound C[C@H](Oc1cc(-c2nn(C)c3c(-c4cnn(C5CCN(C(=O)OCC6CCN(c7cccc8c7C(=O)N(C7CCC(=O)NC7=O)C8=O)CC6)CC5)c4)cnc(N)c23)ccc1NS(=O)(=O)C(F)F)c1ccc(F)cc1 (some centres unmarked) [Compound 1105, {1-[2-(2,6-dioxopiperidin-3-yl)-1,3-dioxo-2,3-dihydro-1H-isoindol-4-yl]piperidin-4-yl}methyl4-(4-{4-amino-3-[4-(difluoromethanesulfonamido)-3-[(1 S)-1-(4-fluorophenyl)ethoxy]phenyl]-1-methyl-1H-pyrazolo[4,3-c]pyridin-7-yl}-1H-pyrazol-1-yl)piperidine-1-carboxylate] has a Kd [1] of 0.01 to 1 µM, an IC50 [2] of under 1 µM and a DC50 [3] of under 1 µM.

Compound C[C@H](Oc1cc(-c2nn(C)c3c(-c4cnn(C5CCN(CCn6cc(CCNc7cccc8c7C(=O)N(C7CCC(=O)NC7=O)C8=O)nn6)CC5)c4)cnc(N)c23)ccc1NS(=O)(=O)C(F)F)c1ccc(F)cc1 (some centres unmarked) [Compound 1128, N-(4-{4-amino-7-[1-(1-{2-[4-(2-{[2-(2,6-dioxopiperidin-3-yl)-1,3-dioxo-2,3-dihydro-1H-isoindol-4-yl]amino}ethyl)-1H-1,2,3-triazol-1-yl]ethyl}piperidin-4-yl)-1H-pyrazol-4-yl]-1-methyl-1H-pyrazolo[4,3-c]pyridin-3-yl}-2-[(1 S)-1-(4-fluorophenyl)ethoxy]phenyl)-1,1-difluoromethanesulfonamide] has an IC50 [2] of under 1 µM and a DC50 [3] of under 1 µM.

Cc1ncsc1-c1ccc(CNC(=O)[C@@H]2C[C@@H](O)CN2C(=O)[C@@H](NC(=O)c2cccc(OCCn3cc(-c4cnc(N)c5c(-c6ccc(NS(=O)(=O)C(F)F)c(O[C@@H](C)c7ccc(F)cc7)c6)nn(C)c45)cn3)c2)C(C)(C)C)cc1 [Compound 1039, (2S,4R)-1-[(2S)-2-({3-[2-(4-{4-amino-3-[4-(difluoromethanesulfonamido)-3-[(1S)-1-(4-fluorophenyl)ethoxy]phenyl]-1-methyl-1H-pyrazolo[4,3-c]pyridin-7-yl}-1H-pyrazol-1-yl)ethoxy]phenyl}formamido)-3,3-dimethylbutanoyl]-4-hydroxy-N-{[4-(4-methyl-1,3-thiazol-5-yl)phenyl]methyl}pyrrolidine-2-carboxamide] was tested, and the Kd [1] was 0.01 to 1 µM and the DC50 [3] was 1 to 10 µM.

For C[C@H](Oc1cc(-c2nn(C)c3c(-c4cnn(C5CCN(C(=O)Cc6cccc7c6C(=O)N(C6CCC(=O)NC6=O)C7=O)CC5)c4)cnc(N)c23)ccc1NS(=O)(=O)C(F)F)c1ccc(F)cc1 (stereo partly drawn) [Compound 1137, N-(4-{4-amino-7-[1-(1-{2-[2-(2,6-dioxopiperidin-3-yl)-1,3-dioxo-2,3-dihydro-1H-isoindol-4-yl]acetyl}piperidin-4-yl)-1H-pyrazol-4-yl]-1-methyl-1H-pyrazolo[4,3-c]pyridin-3-yl}-2-[(1S)-1-(fluorophenyl)ethoxy]phenyl)-1,1-difluoromethanesulfonamide], the IC50 [2] was 1 to 10 µM and the DC50 [3] was under 1 µM.

In the case of Cc1ncsc1-c1ccc(CNC(=O)[C@@H]2C[C@@H](O)CN2C(=O)[C@@H](NC(=O)C2(F)CC2)C(C)(C)C)c(OCCCCCCCCn2cc(-c3cnc(N)c4c(-c5ccc(NS(=O)(=O)C(F)F)c(O[C@@H](C)c6ccc(F)cc6)c5)nn(C)c34)cn2)c1 [Compound 1045, (2S,4R)-N-[(2-{[8-(4-{4-amino-3-[4-(difluoromethanesulfonamido)-3-[(1S)-1-(4-fluorophenyl)ethoxy]phenyl]-1-methyl-1H-pyrazolo[4,3-c]pyridin-7-yl}-1H-pyrazol-1-yl)octyl]oxy}-4-(4-methyl-1,3-thiazol-5-yl)phenyl)methyl]-1-[(2S)-2-[(1-fluorocyclopropyl)formamido]-3,3-dimethylbutanoyl]-4-hydroxypyrrolidine-2-carboxamide], the Kd [1] is reported as 0.01 to 1 µM and the DC50 [3] is reported as under 1 µM.
